Laboratory results from ChEMBL document CHEMBL1201862, “PubChem BioAssay data set” (2004).
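Where inhibition never reached the appropriate level, the endpoint shown equals the highest concentration tested. Otherwise, values were interpolated linearly from a five-concentration, 48-hour dose response in 96-well plates. GI50 is the concentration that inhibits growth by half.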 Calls of active or inactive are those of the source. Cut-off read from the data, not from the text of the source: active = GI50 up to about 1.1 µM and inactive = higher.

How the values were obtained:
Assay in all cases: NCI tumour cell line growth inhibition, 48 h
786-0 = test system: 786-0
Hs-578T = test system: Hs-578T
T47D = test system: T47D
LXFL 529 = test system: LXFL 529
RXF 631 = test system: RXF 631
XF498 = test system: XF498
BT-549 = test system: BT-549
MDA-MB-231 = test system: MDA-MB-231
HOP-18 = test system: HOP-18

Compound	GI50 (Hs-578T)	GI50 (T47D)	GI50 (LXFL 529)	GI50 (XF498)	GI50 (MDA-MB-231)	GI50 (HOP-18)	also measured
O=C1c2ccccc2N1C(=O)c1ccccc1[N+](=O)[O-]	56.1 µM (inactive)	> 100 µM (inactive)					GI50 (786-0): 57 µM (inactive)
Cc1cc(NS(=O)(=O)c2ccc(NC(=O)c3cccc4c(Nc5ccc(S(N)(=O)=O)cc5)c5ccccc5nc34)cc2)no1			> 100 µM (inactive)	59.7 µM (inactive)			GI50 (RXF 631): > 100 µM (inactive)
CC(=O)ON1C(=O)c2cccc3cccc(c23)C1=O	23.6 µM (inactive)	20.8 µM (inactive)			29 µM (inactive)		GI50 (BT-549): 20.9 µM (inactive)
NC(=O)Oc1ccccc1 [CARBAMIC ACID PHENYL ESTER]	> 100 µM (inactive)	> 100 µM (inactive)			> 100 µM (inactive)		
O=C(NO)c1coc2ccccc2c1=O			> 100 µM (inactive)				GI50 (RXF 631): > 100 µM (inactive)
CC(C)(C)OC(=O)NCC(=O)NC1c2ccsc2/C(=N/O)[C@H]1O (stereo partly drawn)		> 100 µM (inactive)			> 100 µM (inactive)		GI50 (BT-549): > 100 µM (inactive)
Cc1ccc(NC(=O)c2cccc([N+](=O)[O-])c2O)c(C)c1			14.7 µM (inactive)			1.02 µM (active)	
O=C1OC(c2ccc(O)c(F)c2)(c2ccc(O)c(F)c2)c2cccc3cccc1c23	2.03 µM (inactive)				> 25 µM (inactive)		
COCCOCOc1ccc(OCc2ccccc2)cc1				> 100 µM (inactive)		> 100 µM (inactive)	
COc1cc2c(cc1Oc1ccc(OC)c3c1CC1c4c(cc(OC)c(OC)c4-3)CCN1C)CC1c3c(cc(OC)c(OC)c3-2)CCN1C (stereo not drawn)				1.98 µM (inactive)		14 µM (inactive)	
COc1cc2c(cc1OC)C(C1(O)CCCCC1)NCC2 (stereo not drawn)			> 100 µM (inactive)	> 100 µM (inactive)			
COc1ccc(-c2nnc(-c3ccncc3)o2)cc1	> 100 µM (inactive)	> 100 µM (inactive)			> 100 µM (inactive)		GI50 (786-0): > 100 µM (inactive); GI50 (BT-549): > 100 µM (inactive)
COc1cc([N+](=O)[O-])ccc1NC(=O)c1cccc([N+](=O)[O-])c1O			21.3 µM (inactive)			5.32 µM (inactive)	GI50 (RXF 631): 30.8 µM (inactive)
Cc1ccccc1-c1nc2c(C(=O)NCCN(C)C)cccc2[nH]1				39.7 µM (inactive)		8.02 µM (inactive)	
